The values that follow come from a melting point compilation (Tetko et al.; mined from patent text by program, amines drawn as free bases though some values may be those of a salt).

The structures appear in SMILES notation.

For `CS(=O)(=O)Nc1cnc([N+](=O)[O-])cn1`, the melting point (usually the temperature of the solid-liquid transition) was 204 to 207 °C.
To `COc1cccc(OCCN2CCC(N(C)c3nccc(N(C)C)n3)CC2)c1` belongs 105 °C.
To `CN1CCC23COC(C)(C)OC2C1Cc1ccc(O)cc13` (stereo not given) belongs 237 to 238 °C; to `COc1ccnc(C(=O)c2[nH]c3cc(Cl)ccc3c2NC(C)=O)c1`, 207 to 208 °C; to `CCCCN(CCCC)C(=O)Nc1ccc(C)cc1C`, 48 to 50 °C.
Consider `CC(C)N1C(=O)C2CC(c3ccc(N)cc3)(C2)C1=O`, for which the melting point fell in the range of 191 to 201 °C.
As for `COc1ccc(-n2nc(C(=O)NC(C)(C)C)c3c2C2CCC3C2)cc1` (stereo not given), the melting point lay within 145 to 147 °C.
On to `CC(C)=CCOc1ccc(C(=O)C=Cc2ccccc2)c(O)c1`, for which the melting point was 164 to 166 °C.
Compound `C#Cc1ccc2c(c1)C=C(C(=O)O)C(C(F)(F)F)N2` (stereo not given) had a melting point of 259 to 268 °C.
Turning to `CC(C)(C)c1ccc(C(O)(c2ccc(C(C)(C)C)cc2)c2ncc[nH]2)cc1`, the melting point is 215 to 216 °C.
`CC(C)c1nc(CCN(C)C(=O)N[C@H](C(=O)N[C@@H](Cc2ccccc2)C[C@H](O)[C@H](Cc2ccccc2)NC(=O)OCc2cncs2)C(C)C)cs1` had a melting point of 62 to 63 °C.
The compound `COC(=O)C1C(C)OC(=O)C(C)C1NC(=O)OCc1ccccc1` (stereo not given) had a melting point of 144 to 146 °C.
`COC(=O)c1cc(N)c2nc(C)nn2c1`: the melting point came to 212 °C.
The compound `CC(=O)Oc1ccc(Oc2ccc(NC(=O)Nc3cc(C(C)(C)C)on3)cc2)cc1` displayed a melting point of 146 °C.
To `CCOC(=O)c1c(Cn2cnc3ccccc32)nc2cc(OC)c(OC)cc2c1-c1ccc(OC)c(OC)c1` belongs 99 to 100 °C.
`COc1cc(/C=C2/C(=O)NC(=O)/C2=C/c2ccccc2)cc(OC)c1OC` came in with a melting point of 176 to 178 °C.
Under `CC(C)(C)c1ccc(N2CCNCC2)cc1` stands 48 to 52 °C; under `O=C(NCc1ccc(F)cc1)Nc1ccc(CN2C(=O)[C@H]3CCC[C@H]3N(C(=O)CCl)c3ccccc32)cc1` (relative stereo), 202 to 203 °C.
As to `OC(CCCl)COc1ccc(Br)cc1` (stereo not given), the melting point is 75 to 78 °C.
`CC(C)c1ccccc1N1/C(=N\N=C/c2ccc(-c3ncn(-c4ccc(OC(F)(F)F)cc4)n3)cc2)SCC1C` (stereo not given) came in with a melting point of 201 to 204 °C.
To `Cc1cc(NC(=O)C2=C(O)c3ccccc3N(c3ccccc3)C2)no1` belongs 148 to 150 °C; to `COc1cc(C(CC(=O)O)N2Cc3ccccc3C2=O)cc(OC)c1OC` (stereo not given), 162 to 164 °C; to `CCCn1nc2c(N)nc3ccccc3c2c1CCCc1ccn(Cc2ccccc2)c1`, 138 to 140 °C.
To `CCc1cnc(N)c2ccccc12` belongs 84 to 85 °C; to `OC(CCl)(Cc1ccccc1Cl)c1ccc(Cl)cc1` (stereo not given), 64 to 69 °C; to `O=c1ccc2cc(I)ccc2[nH]1`, 261 °C.
For `Cc1ccc(CC(N)=O)c(C)c1OC(F)F`, the melting point lay in the range of 136 to 137 °C.
Compound `O=C(OCCCSc1cccc2nccn12)c1ccccc1` had a melting point of 60 to 61 °C.
For the compound `CC(C)(C)OC(=O)NCCNC(=O)c1cc(-c2ccccc2)c(=O)n2c1-c1ccccc1C2`, the melting point fell in the range of 238 to 240 °C.
`CS(=O)(=O)Nc1ccccc1OC/C=C/CN1CCC(OC(c2ccccc2)c2cccs2)CC1` (stereo not given) displayed a melting point of 114 to 117 °C.
The compound `CC(=O)c1cccc(NC(=O)c2ccc3oc(COCc4ccccc4)cc3c2)c1O` showed a melting point of 92 to 94 °C.
As to `CC(C)n1nc(-c2sc(C(N)=O)nc2-c2cccc(F)c2)ccc1=O`, the melting point lay in the range of 248 to 250 °C.
For `Cc1ccc2c(c1)N(CC(=O)c1ccccc1C)C(=O)C(NC(=O)Nc1cccc(C(=O)O)c1)CN2C(=O)c1ccco1` (stereo not given), the melting point is 219 to 221 °C.
`Cc1ccc(S(=O)(=O)OC[C@H](CNC(=O)c2ccc(Cl)s2)OC(=O)Nc2ccc(N3CCOCC3=O)cc2)cc1` gave a melting point of 142 °C.
As to `CCOC(=O)c1c(=O)c2cc(F)c(N3CCN(C)CC3)cc2n2ccccc12`, the melting point was 167 to 170 °C.
Compound `Cc1cc(C)c2c3c([nH]c2c1)C(=O)N=NC3=O` showed a melting point greater than 250 °C.
As to `CCc1scc(C(=O)O)c1N`, the melting point was 132 to 133 °C.
The compound `Cc1cc(F)ccc1-c1ccc(S(=O)(=O)N2c3ccccc3CC2C(=O)O)cc1` (stereo not given) came in with a melting point of 62 to 67 °C.
In turn, `O=C(c1ccc(C(=O)c2ccc(F)c([N+](=O)[O-])c2)cc1)c1ccc(F)c([N+](=O)[O-])c1` registered a melting point of 221 to 223 °C.
For `O=C(O)CCCc1c([N+](=O)[O-])cc(O)c(O)c1[N+](=O)[O-]`, the melting point is 165 to 170 °C.
Under `O=C(O)COc1cc2cc(-c3ccccc3)sc2c(Cl)c1Cl` stands 209 to 211 °C; under `CN1CCC2(CC=C(c3cc4ccccc4s3)CC2)CC1`, 89.7 to 91.2 °C.
`CC(=O)NCC(C)(C)c1ccc2nc(-c3c[nH]cn3)[nH]c2c1`: the melting point was in the range of 235 to 237 °C.
Consider `CCCCCCCCCCNC(=O)C=Cc1cccc(N2CC(C(=O)O)CC2=O)c1` (stereo not given), for which the melting point was 151 to 152 °C.
Compound `Cc1nn(-c2ccc3cc(-c4ccc(C(=O)Cl)cc4)oc3c2)nc1-c1ccccc1` had a melting point of 275 °C.
To `O=C(NCCC12CC3CC(CC(C3)C1)C2)c1cc(-c2ccccc2C(=O)O)ccc1Cl` belongs 114 to 117 °C.
Regarding `O=Cc1ccc(OC(=O)c2ccccc2)c([N+](=O)[O-])c1`, the melting point is 110 to 112 °C.
`COC(=O)c1ccc(NN=CC(=O)OCCC#N)cc1S(N)(=O)=O` gave a melting point of 188 to 189 °C.
To `NNC(=O)C(F)(F)C(F)(F)C(F)(F)F` belongs 138 to 142 °C; to `CS(=O)(=O)c1ccc(-c2cc(CBr)nn2-c2ccc(Cl)cc2)cc1`, 60 to 64 °C; to `CCCc1c(O)ccc2c1CCCC2=O`, 159 to 160 °C.
For `CCCn1cc(Cc2ccc(C(=O)NS(=O)(=O)c3ccccc3C)cc2OC)c2cc(CCCCC(=O)N(C)C)ccc21`, the melting point fell in the range of 80 to 85 °C.
`O=C(O)C1CCc2c(c3ccccc3n2C(=O)c2cccs2)C1` (stereo not given) came in with a melting point of 180 to 182 °C.
Compound `CNC(=O)c1ccccc1Nc1nc(Nc2ccc3c(c2)OCCN(C)C3=O)ncc1Cl` registered a melting point of 288 to 289 °C.
For `N#Cc1c(Cl)cccc1SSc1ccc([N+](=O)[O-])cc1C(Cl)(Cl)Cl`, the melting point turned out to be 137 °C.
In the case of `O=C1Nc2ccccc2/C1=C/c1c[nH]c2ncccc12`, the melting point was greater than 280 °C.
With `Cc1ccc2ncc(CSc3ccc(N)cc3)n2c1`, the melting point is 128 to 129 °C.
Compound `CC(C)(C)OC(=O)NCCCCC(=O)Nc1ccc(OCc2ccccc2)c(C(=O)NCCC(=O)OCc2ccccc2)c1` came in with a melting point of 97 to 99 °C.
For `Cc1cc([N+](=O)[O-])c(C)cc1Oc1cccc(C(F)(F)F)c1`, the melting point was 68 to 71 °C.
Under `CCOC(=O)c1cc2cc([N+](=O)[O-])cc(C)c2o1` stands 125 to 126 °C; under `O=c1c2cnc(N3CCOCC3)nc2sn1CCN1CCCCC1`, 98 to 100 °C; under `O=C1N[C@H](Cc2cccc(OCC(F)(F)F)c2)[C@H](c2ccc(F)cc2)O1` (racemic), 148 to 149 °C.
To `NNc1ncccc1-c1cccnc1` belongs 104 to 107 °C; to `CCCCc1oc2ccccc2c1C(=O)NCc1ccc2c(-c3ccccc3)c(OCC#N)ccc2c1`, 135 to 138 °C.
In the case of `CCCCCCCCCCCCCCCC(N=C=O)S(=O)(=O)c1ccc2ccccc2c1` (stereo not given), the melting point lay in the range of 152 to 155 °C.
`Cc1c(C)c2c(c(C)c1NC(=O)CC(C)(C)C)C(c1ccccc1)CO2` (stereo not given) returned a melting point of 146 to 147 °C.
To `COc1cccc2c1CC=CC2` belongs 44.3 to 45 °C.
For `O=C(O)CNc1cc(Cl)ccc1C(=O)O`, the melting point came to 231 °C.
Compound `COCCc1nc2c(N)nc3c(c2n1CCCNS(C)(=O)=O)CCCC3` returned a melting point of 150 to 152 °C.
Take `O=C(NCCO)c1cccc(-c2cccc3nn(Cc4ccc(F)c(Cl)c4)cc23)c1`: the melting point lay within 177 to 178 °C.
Take `CCCCC=CC(=O)Nc1ccccc1`: the melting point was 50 °C.
The compound `COC(=O)c1[nH]c2c(C)ccc(C)c2c1NC(C)=O` had a melting point of 221 to 222 °C.
`CCOC(=O)c1c(C(C)C)c(S(=O)(=O)c2ccc(OC)cc2)n2ccccc12` showed a melting point of 103 to 104 °C.
`CCC(=O)c1c(SC)sc(C#N)c1CC`: the melting point was in the range of 66 to 67 °C.
As to `O=C(NC(C(=O)O)c1ccc[nH]1)OCC(Cl)(Cl)Cl` (stereo not given), the melting point was 111 °C.
Under `COc1ccc2c3c(c4cc(OC)c(OC)cc4c2c1)CC1CCCCN1C3` (stereo not given) stands 193 to 195 °C; under `CCCCCN1C(=O)C2(COc3cc4nc(C)sc4cc32)c2ccccc21` (stereo not given), 105 to 107 °C.
To `COc1cc2c(cc1O)CCN(C(=O)c1cccc(C#N)c1)C2=O` belongs 197 to 198 °C; to `COc1cc(Nc2nccc(-c3ccc(Br)cc3)n2)cc(OC)c1OC`, 179 °C; to `O=C1Nc2ccc(F)cc2C(=O)N2CC[C@@H]12`, 216 to 217 °C.
To `C=CCNc1nc(NCC=C)nc(N2CCN(C(=S)n3ccnc3)CC2)n1` belongs 124 to 127 °C.
With `CCOC(=O)c1cc(Cl)c(N)c2c1OCCO2`, the melting point was in the range of 105 to 106 °C.
Turning to `CN1CCN(CCCNc2sc(-c3cc[nH]n3)c3c2C(=O)CC(C)(C)C3)CC1`, the melting point is 160 to 163 °C.
In turn, `C=CCOC(=O)/C(=N\O)c1csc(N)n1` registered a melting point of 184 to 185 °C.
The compound `N#Cc1c(Nc2cccc(Cl)c2)n[nH]c1N` yielded a melting point of 195 to 200 °C.
`O=c1cc(-c2ccncn2)nc2n1CCOCC2Br` (racemic) gave a melting point of 176 to 178 °C.
With `Cc1c[nH]c(-c2ccc(OCC(O)CNC3CC3)cc2)n1` (stereo not given), the melting point lay within 150 to 154 °C.
To `CSC(SC)=C(C#N)C(=O)N1CCOCC1` belongs 55 to 57 °C.
On to `OC[C@@H]1CNCc2cc3ccc(C(F)(F)F)cc3n21`, for which the melting point lay within 126 to 127 °C.
Under `Cc1cc2c(-c3ccccc3Cl)c(NC(=O)Nc3ccc(F)cc3F)c(=O)n(C)c2cc1C` stands 242 to 244 °C.
